Measurements as given in patent US20180201592A1, “2-AMINO-1,3,4-THIADIAZINE AND 2-AMINO-1,3,4-OXADIAZINE BASED ANTIFUNGAL AGENTS” (F2G Limited, priority 2015, published 2018).

Assays:
Conditions in all cases: banded MIC grade
Aspergillus fumigatus = assay: Minimum inhibitory concentration, YAG medium; format: cell-based
How it was run: (§1)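 Broth microdilution in YAG medium; inoculum 1-2×10^4 cfu/mL; compound 50-0.05 mg/L in doubling steps, from DMSO stock. 24 h, 35° C. Read OD 485 nm; MIC = lowest conc. inhibiting growth >70% vs no-drug control, in mg/L.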

A. fumigatus 210 [1] = assay: Minimum inhibitory concentration, YAG medium; format: cell-based, Aspergillus fumigatus
How it was run: as §1

A. terreus 49 [2] = assay: Minimum inhibitory concentration, YAG medium; format: cell-based, Aspergillus terreus
How it was run: (§2)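 Twofold aqueous dilution series, prepared from a DMSO stock (5 mg/mL), were inoculated with Aspergillus spp. spores; incubation lasted 24 hrs at 35° C before OD 485 nm readings.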

Aspergillus flavus = assay: Minimum inhibitory concentration, YAG medium; format: cell-based
How it was run: as §2

Aspergillus niger = assay: Minimum inhibitory concentration, YAG medium; format: cell-based
How it was run: as §2

Aspergillus terreus = assay: Minimum inhibitory concentration, YAG medium; format: cell-based
How it was run: as §2

A. flavus = assay: Minimum inhibitory concentration, RPMI medium; format: cell-based
How it was run: (§3)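 Incubated at 35° C for 24-48 hrs in RPMI 1640 with twofold water dilutions of compound (from 5 mg/mL stock in DMSO); absorbance at 485 nm indicated growth.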

A. niger = assay: Minimum inhibitory concentration, RPMI medium; format: cell-based
How it was run: as §3

A. terreus 49 [3] = assay: Minimum inhibitory concentration, RPMI medium; format: cell-based
How it was run: as §3

A. terreus = assay: Minimum inhibitory concentration, RPMI medium; format: cell-based
How it was run: as §3

C. albicans = assay: Minimum inhibitory concentration, RPMI medium; format: cell-based
How it was run: as §3

C. glabrata = assay: Minimum inhibitory concentration, RPMI medium; format: cell-based
How it was run: as §3

C. krusei = assay: Minimum inhibitory concentration, RPMI medium; format: cell-based
How it was run: as §3

C. parapsilosis = assay: Minimum inhibitory concentration, RPMI medium; format: cell-based
How it was run: as §3

C. tropicalis = assay: Minimum inhibitory concentration, RPMI medium; format: cell-based
How it was run: as §3

A. fumigatus 210 [4] = assay: Minimum inhibitory concentration, RPMI medium; format: cell-based
How it was run: (§4)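 Broth microdilution in RPMI 1640 (2% glucose, 0.135 M MOPS, pH 7.0) at 1-2×10^4 cfu/mL, testing 50-0.05 mg/L in doubling steps. After 24-48 hrs at 35° C, OD at 485 nm was read, and the MIC was taken as the lowest drug level suppressing growth by >80% relative to drug-free wells.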

A. fumigatus = assay: Minimum inhibitory concentration, RPMI medium; format: cell-based
How it was run: as §4

Row | Compound | MIC grade, A. FUMIGATUS, YAG media (Aspergillus fumigatus) | MIC grade, A. FUMIGATUS 210, YAG media (A. fumigatus 210 [1]) | MIC grade, A. TERREUS 49, YAG media (A. terreus 49 [2]) | MIC grade, A. FLAVUS, YAG media (Aspergillus flavus) | MIC grade, A. NIGER, YAG media (Aspergillus niger) | MIC grade, A. TERREUS, YAG media (Aspergillus terreus) | MIC grade, A. FLAVUS, RPMI media (A. flavus) | MIC grade, A. NIGER, RPMI media (A. niger) | MIC grade, A. TERREUS 49, RPMI media (A. terreus 49 [3]) | MIC grade, A. TERREUS, RPMI media (A. terreus) | MIC grade, C. ALBICANS, RPMI media (C. albicans) | MIC grade, C. GLABRATA, RPMI media (C. glabrata) | MIC grade, C. KRUSEI, RPMI media (C. krusei) | MIC grade, C. PARAPSILOSIS, RPMI media (C. parapsilosis) | MIC grade, C. TROPICALIS, RPMI media (C. tropicalis) | MIC grade, A. FUMIGATUS 210, RPMI media (A. fumigatus 210 [4]) | MIC grade, A. FUMIGATUS, RPMI media (A. fumigatus)
1 | NC1=NN=C(CCCCOCc2cccc(-c3ccccc3)c2)CS1 | 1 (1: ≥5 mg/L) | 1 (1: ≥5 mg/L) | 2 (2: 1-5 mg/L) | 2 (2: 1-5 mg/L) | 2 (2: 1-5 mg/L) | 2 (2: 1-5 mg/L) | 2 (2: 5-20 mg/L) | 1 (1: ≥20 mg/L) | 1 (1: ≥20 mg/L) | 2 (2: 5-20 mg/L) | 2 (2: 5-20 mg/L) | 1 (1: ≥20 mg/L) | 2 (2: 5-20 mg/L) | 2 (2: 5-20 mg/L) | 2 (2: 5-20 mg/L) | 1 (1: ≥20 mg/L) | 1 (1: ≥20 mg/L)
2 | NC1=NN=C(CCOCCOc2ccccc2)CS1 | 4 (4: <0.2 mg/L) | 4 (4: <0.2 mg/L) | 4 (4: <0.2 mg/L) | 4 (4: <0.2 mg/L) | 4 (4: <0.2 mg/L) | 4 (4: <0.2 mg/L) | 3 (3: 1-5 mg/L) | 3 (3: 1-5 mg/L) | 4 (4: <1 mg/L) | 4 (4: <1 mg/L) | 3 (3: 1-5 mg/L) | 2 (2: 5-20 mg/L) | 4 (4: <1 mg/L) | 4 (4: <1 mg/L) | 3 (3: 1-5 mg/L) | 3 (3: 1-5 mg/L) | 3 (3: 1-5 mg/L)
3 | COc1ccc(COCCCCC2=NN=C(N)SC2)cc1 | 2 (2: 1-5 mg/L) | 2 (2: 1-5 mg/L) | 2 (2: 1-5 mg/L) | 2 (2: 1-5 mg/L) | 2 (2: 1-5 mg/L) | 2 (2: 1-5 mg/L) | 1 (1: ≥20 mg/L) | 1 (1: ≥20 mg/L) | 1 (1: ≥20 mg/L) | 1 (1: ≥20 mg/L) | 2 (2: 5-20 mg/L) | 2 (2: 5-20 mg/L) | 2 (2: 5-20 mg/L) | 2 (2: 5-20 mg/L) | 2 (2: 5-20 mg/L) | 1 (1: ≥20 mg/L) | 1 (1: ≥20 mg/L)
4 | NC1=NN=C(CCCCOCc2cc(Cl)cc(Cl)c2)CS1 | 3 (3: 0.2-1 mg/L) | 2 (2: 1-5 mg/L) | 3 (3: 0.2-1 mg/L) | 4 (4: <0.2 mg/L) | 3 (3: 0.2-1 mg/L) | 3 (3: 0.2-1 mg/L) | 2 (2: 5-20 mg/L) | 2 (2: 5-20 mg/L) | 2 (2: 5-20 mg/L) | 2 (2: 5-20 mg/L) | 2 (2: 5-20 mg/L) | 2 (2: 5-20 mg/L) | 2 (2: 5-20 mg/L) | 3 (3: 1-5 mg/L) | 2 (2: 5-20 mg/L) | 1 (1: ≥20 mg/L) | 2 (2: 5-20 mg/L)
5 | NC1=NN=C(CCCCOCc2ccc(Br)cc2)CS1 | 4 (4: <0.2 mg/L) | 4 (4: <0.2 mg/L) | 4 (4: <0.2 mg/L) | 4 (4: <0.2 mg/L) | 4 (4: <0.2 mg/L) | 4 (4: <0.2 mg/L) | 4 (4: <1 mg/L) | 3 (3: 1-5 mg/L) | 3 (3: 1-5 mg/L) | 4 (4: <1 mg/L) | 4 (4: <1 mg/L) | 4 (4: <1 mg/L) | 4 (4: <1 mg/L) | 4 (4: <1 mg/L) | 4 (4: <1 mg/L) | 2 (2: 5-20 mg/L) | 2 (2: 5-20 mg/L)
6 | NC1=NN=C(CCCCOCc2cc(F)ccc2F)CS1 | 4 (4: <0.2 mg/L) | 4 (4: <0.2 mg/L) | 4 (4: <0.2 mg/L) | 4 (4: <0.2 mg/L) | 4 (4: <0.2 mg/L) | 4 (4: <0.2 mg/L) | 2 (2: 5-20 mg/L) | 2 (2: 5-20 mg/L) | 2 (2: 5-20 mg/L) | 2 (2: 5-20 mg/L) | 3 (3: 1-5 mg/L) | 2 (2: 5-20 mg/L) | 3 (3: 1-5 mg/L) | 3 (3: 1-5 mg/L) | 3 (3: 1-5 mg/L) | 2 (2: 5-20 mg/L) | 2 (2: 5-20 mg/L)
7 | NC1=NN=C(CCCCOCc2ccc(F)cc2)CS1 | 2 (2: 1-5 mg/L) | 2 (2: 1-5 mg/L) | 2 (2: 1-5 mg/L) | 2 (2: 1-5 mg/L) | 2 (2: 1-5 mg/L) | 2 (2: 1-5 mg/L) | 1 (1: ≥20 mg/L) | 1 (1: ≥20 mg/L) | 1 (1: ≥20 mg/L) | 1 (1: ≥20 mg/L) | 2 (2: 5-20 mg/L) | 2 (2: 5-20 mg/L) | 2 (2: 5-20 mg/L) | 2 (2: 5-20 mg/L) | 2 (2: 5-20 mg/L) | 1 (1: ≥20 mg/L) | 1 (1: ≥20 mg/L)
8 | CC(=O)OCCCCC1=NN=C(N)SC1 | 4 (4: <0.2 mg/L) | 4 (4: <0.2 mg/L) | 4 (4: <0.2 mg/L) | 4 (4: <0.2 mg/L) | 3 (3: 0.2-1 mg/L) | 4 (4: <0.2 mg/L) | 3 (3: 1-5 mg/L) | 2 (2: 5-20 mg/L) | 3 (3: 1-5 mg/L) | 3 (3: 1-5 mg/L) | 3 (3: 1-5 mg/L) | 2 (2: 5-20 mg/L) | 4 (4: <1 mg/L) | 4 (4: <1 mg/L) | 3 (3: 1-5 mg/L) | 3 (3: 1-5 mg/L) | 3 (3: 1-5 mg/L)
